From paper PMC4522399 (Journal of pharmaceutical sciences, 2015)

Assays:
in vivo = conditions: male, Balb/c, mouse, iv, 0.08 mmol/kg
human NTCP = biological target: T1, human NTCP (Homo sapiens, UniProt Q14973); conditions: native substrate, comparison value; cited from earlier work
T1 sequence (Q14973 1-349): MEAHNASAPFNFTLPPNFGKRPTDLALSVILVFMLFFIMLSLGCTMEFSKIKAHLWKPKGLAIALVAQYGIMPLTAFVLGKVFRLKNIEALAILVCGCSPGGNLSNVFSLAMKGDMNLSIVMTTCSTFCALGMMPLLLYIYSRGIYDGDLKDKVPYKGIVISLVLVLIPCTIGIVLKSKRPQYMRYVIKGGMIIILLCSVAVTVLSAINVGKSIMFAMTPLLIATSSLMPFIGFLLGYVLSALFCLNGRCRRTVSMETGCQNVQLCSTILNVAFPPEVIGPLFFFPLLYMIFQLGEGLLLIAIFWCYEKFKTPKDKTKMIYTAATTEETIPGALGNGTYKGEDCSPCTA

| Tmax (in vivo) | SMILES | Kt (human NTCP) |
| --- | --- | --- |
| 30 min | NC(=O)c1ncn([C@@H]2O[C@H](CO)[C@@H](O)[C@H]2O)n1 [ribavirin, Ribavirin] |  |
|  | C[C@H](CCC(=O)NCCS(=O)(=O)O)[C@H]1CC[C@H]2[C@@H]3[C@H](O)C[C@@H]4C[C@H](O)CC[C@]4(C)[C@H]3C[C@H](O)[C@]12C [taurocholate] | 22.7 µM |
